According to US11725012B2, “Imidazo[1,5-a]pyrazine derivatives as PI3K δ inhibitors” (priority 2016, dated 2023):

Experiments:
[1] = target: recombinant PI3K (p110α/p85α) (Homo sapiens, UniProt P42336); experiment: PI3Kα ADP-Glo kinase assay; type: biochemical; settings: PI3Kα Enzyme activity IC50
[2] = Pharmacokinetic properties in Sprague-Dawley rats after IV and PO administration; type: in vivo; settings: male, plasma, rat; for Vd: read-out: VdSS
Experimental: III. Pharmacokinetic Properties of Compounds in Sprague-Dawley Rats after Intravenous (IV) and Oral Administrations (PO)
Dose Formulation Preparation The injection dosing solution was prepared as follows: 1.0 mg of a test compound was weighted and dissolved in 0.32 mL of dimenthyl acetamide (DMA). The solution was then further diluted by 0.36 mL of ethanol and 0.32 mL of propylene glycol. The final concentration of the test compound was 1.0 mg·mL^−1.
The oral dosing solution was prepared as follows: 5.0 mg of a test compound was weighed and dispersed in […] of 0.5% methyl cellulose (MC). The final concentration of the test compound is 1 mg·mL^−1.
The animals were housed in solid bottom polypropylene cages with sterilized bedding and receive sterilized diet and sterilized water. The room was controlled and monitored for humidity (targeted mean range 40% to 70%) and temperature (targeted mean range 18° C. to 26° C.) with 10 to 20 air changes/hour. The light cycle was maintained at 12-h light and 12-h dark, Only animals that appeared to be healthy were selected for this study based on overall health, body weight, or other relevant information.
The male Sprague-Dawley rats were fasted overnight with free access to drinking water prior to treatment. On day 1, the animals were weighed and actual dose volume for each animal was calculated using the formula below: Dose Volume (mL)=[Nominal Dose (mg·kg^−1)/Dose Concentration (mg·mL^−1)]×Animal Body Weight (kg) (1)
Three rats were given a single IV dose of 1 mg·kg^−1 via tail vein injection and other three rats were given a single oral dose of 5 mg·kg^−1. The dosing solutions were freshly prepared prior to dose administration. The actual body weights and actual volume injected were recorded accordingly. Four hours after dosing, the rats were allowed to intake food.
Blood samples ([…]) were collected at different times from the jugular vein catheter into EDTA-K2 coated tubes, Whole blood was processed by centrifugation at 3000 g for 10 min. Plasma samples were collected and kept at −80° C. freezer prior to analysis. The blood sampling time was recorded accordingly.
The dose samples of IV and PO were diluted with MeOH:H2O (4:1, v/v) to achieve the concentration of 2 μg·mL^−1, respectively. Then, 2.5 μL of the diluted samples were added with 47.5 μL blank plasma, and then were handled as the plasma sample procedure. An aliquot of 10 μL of the mixture was injected into the LC-MS/MS system.

[3] = target: recombinant PI3K (p110δ/p85α) (Homo sapiens, UniProt O00329); experiment: PI3Kδ ADP-Glo kinase assay; type: biochemical; settings: PI3Kδ Enzyme activity IC50
Sequence of recombinant PI3K (p110δ/p85α) (O00329 whole entry): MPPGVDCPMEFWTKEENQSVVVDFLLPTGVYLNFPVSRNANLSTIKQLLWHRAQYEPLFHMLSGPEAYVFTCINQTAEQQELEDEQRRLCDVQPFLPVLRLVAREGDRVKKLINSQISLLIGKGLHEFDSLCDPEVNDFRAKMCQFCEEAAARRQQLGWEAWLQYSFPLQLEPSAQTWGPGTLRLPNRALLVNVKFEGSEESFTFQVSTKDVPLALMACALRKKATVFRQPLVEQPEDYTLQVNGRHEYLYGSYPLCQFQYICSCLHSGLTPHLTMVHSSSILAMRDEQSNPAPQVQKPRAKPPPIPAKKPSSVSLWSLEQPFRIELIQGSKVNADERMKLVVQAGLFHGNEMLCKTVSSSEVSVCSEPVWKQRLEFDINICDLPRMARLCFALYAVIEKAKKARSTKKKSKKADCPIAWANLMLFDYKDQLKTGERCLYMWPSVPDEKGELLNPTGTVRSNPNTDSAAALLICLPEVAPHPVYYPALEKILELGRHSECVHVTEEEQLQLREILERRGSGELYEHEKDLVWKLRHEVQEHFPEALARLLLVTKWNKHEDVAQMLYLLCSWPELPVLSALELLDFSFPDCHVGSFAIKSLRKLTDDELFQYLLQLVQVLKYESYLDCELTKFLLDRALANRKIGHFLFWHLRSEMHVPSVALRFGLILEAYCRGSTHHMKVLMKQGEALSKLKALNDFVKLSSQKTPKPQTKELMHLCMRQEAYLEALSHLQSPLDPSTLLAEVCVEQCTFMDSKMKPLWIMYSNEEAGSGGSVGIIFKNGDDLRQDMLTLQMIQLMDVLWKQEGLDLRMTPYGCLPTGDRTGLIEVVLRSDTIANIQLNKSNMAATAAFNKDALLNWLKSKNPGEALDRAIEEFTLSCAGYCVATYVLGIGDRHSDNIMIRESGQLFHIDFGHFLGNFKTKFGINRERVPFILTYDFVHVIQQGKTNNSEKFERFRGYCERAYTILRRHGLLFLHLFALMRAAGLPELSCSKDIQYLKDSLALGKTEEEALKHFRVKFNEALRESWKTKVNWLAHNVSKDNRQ
Sequence of recombinant PI3K (p110δ/p85α) (P27986 whole entry partner): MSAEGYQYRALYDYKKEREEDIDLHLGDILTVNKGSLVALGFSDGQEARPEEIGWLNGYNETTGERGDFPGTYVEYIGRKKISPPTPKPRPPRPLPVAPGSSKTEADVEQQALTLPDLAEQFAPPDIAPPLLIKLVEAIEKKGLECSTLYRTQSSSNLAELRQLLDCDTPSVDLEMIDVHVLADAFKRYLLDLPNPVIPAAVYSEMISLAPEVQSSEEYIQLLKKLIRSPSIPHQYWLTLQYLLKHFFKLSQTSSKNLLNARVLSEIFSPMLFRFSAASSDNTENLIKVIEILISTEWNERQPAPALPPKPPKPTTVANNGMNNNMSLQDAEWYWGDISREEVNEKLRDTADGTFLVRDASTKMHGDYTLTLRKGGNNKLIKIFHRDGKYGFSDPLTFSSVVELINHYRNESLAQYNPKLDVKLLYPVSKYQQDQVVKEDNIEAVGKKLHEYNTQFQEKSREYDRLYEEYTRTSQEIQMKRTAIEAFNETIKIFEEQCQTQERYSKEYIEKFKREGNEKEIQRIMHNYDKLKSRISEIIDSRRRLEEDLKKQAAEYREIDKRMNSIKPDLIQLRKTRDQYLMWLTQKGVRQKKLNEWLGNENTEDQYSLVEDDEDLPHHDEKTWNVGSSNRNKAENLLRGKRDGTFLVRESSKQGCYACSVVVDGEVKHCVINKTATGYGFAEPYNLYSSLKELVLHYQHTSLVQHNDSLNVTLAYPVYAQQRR
Summary of the method: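 ADP-Glo luminescence with recombinant p110δ/p85α and lipid kinase substrate. Compound serial dilutions preincubated 0.5 hr, ATP added, reaction 1 hr at room temperature, then ATP depletion and detection steps. IC50 from a four-parameter logistic fit of residual activity.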

PI3K (p110β/p85α) = PI3K (p110β/p85α) (Homo sapiens, UniProt P42338); experiment: PI3Kβ ADP-Glo kinase assay; type: biochemical; settings: PI3Kβ Enzyme activity IC50
Sequence of PI3K (p110β/p85α) (P42338 whole entry): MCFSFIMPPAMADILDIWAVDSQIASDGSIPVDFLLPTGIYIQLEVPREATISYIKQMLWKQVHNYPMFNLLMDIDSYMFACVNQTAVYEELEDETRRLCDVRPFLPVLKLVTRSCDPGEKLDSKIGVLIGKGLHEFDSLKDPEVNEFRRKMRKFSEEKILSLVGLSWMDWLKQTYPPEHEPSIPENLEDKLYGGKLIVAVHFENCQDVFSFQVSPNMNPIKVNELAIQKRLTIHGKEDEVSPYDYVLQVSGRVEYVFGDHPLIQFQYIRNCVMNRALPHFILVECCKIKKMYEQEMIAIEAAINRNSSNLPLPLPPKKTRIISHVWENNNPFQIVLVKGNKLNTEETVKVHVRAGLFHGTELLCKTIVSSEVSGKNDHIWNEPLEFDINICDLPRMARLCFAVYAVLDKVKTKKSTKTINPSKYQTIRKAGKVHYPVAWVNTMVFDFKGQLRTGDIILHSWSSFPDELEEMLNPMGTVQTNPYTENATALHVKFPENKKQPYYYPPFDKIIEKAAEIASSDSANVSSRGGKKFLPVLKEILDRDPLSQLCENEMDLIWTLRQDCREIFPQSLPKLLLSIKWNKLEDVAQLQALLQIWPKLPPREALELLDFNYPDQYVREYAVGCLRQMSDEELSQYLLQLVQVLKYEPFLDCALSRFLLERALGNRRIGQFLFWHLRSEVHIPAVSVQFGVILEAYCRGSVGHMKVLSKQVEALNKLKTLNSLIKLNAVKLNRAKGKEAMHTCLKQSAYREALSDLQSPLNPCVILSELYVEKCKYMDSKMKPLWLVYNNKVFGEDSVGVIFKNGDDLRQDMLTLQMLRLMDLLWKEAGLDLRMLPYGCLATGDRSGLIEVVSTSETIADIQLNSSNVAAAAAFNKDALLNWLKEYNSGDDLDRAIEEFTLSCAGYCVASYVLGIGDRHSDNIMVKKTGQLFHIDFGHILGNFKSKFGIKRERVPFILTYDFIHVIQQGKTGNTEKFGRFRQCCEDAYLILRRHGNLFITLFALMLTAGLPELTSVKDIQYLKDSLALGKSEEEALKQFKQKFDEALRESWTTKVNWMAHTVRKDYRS
Sequence of PI3K (p110β/p85α) (P27986 whole entry partner): as the sequence (P27986 whole entry partner) above

PI3K (p110γ) = PI3K (p110γ) (Homo sapiens, UniProt P48736); experiment: PI3Kγ ADP-Glo kinase assay; type: biochemical; settings: PI3Kγ Enzyme activity IC50
Sequence of PI3K (p110γ) (P48736 whole entry): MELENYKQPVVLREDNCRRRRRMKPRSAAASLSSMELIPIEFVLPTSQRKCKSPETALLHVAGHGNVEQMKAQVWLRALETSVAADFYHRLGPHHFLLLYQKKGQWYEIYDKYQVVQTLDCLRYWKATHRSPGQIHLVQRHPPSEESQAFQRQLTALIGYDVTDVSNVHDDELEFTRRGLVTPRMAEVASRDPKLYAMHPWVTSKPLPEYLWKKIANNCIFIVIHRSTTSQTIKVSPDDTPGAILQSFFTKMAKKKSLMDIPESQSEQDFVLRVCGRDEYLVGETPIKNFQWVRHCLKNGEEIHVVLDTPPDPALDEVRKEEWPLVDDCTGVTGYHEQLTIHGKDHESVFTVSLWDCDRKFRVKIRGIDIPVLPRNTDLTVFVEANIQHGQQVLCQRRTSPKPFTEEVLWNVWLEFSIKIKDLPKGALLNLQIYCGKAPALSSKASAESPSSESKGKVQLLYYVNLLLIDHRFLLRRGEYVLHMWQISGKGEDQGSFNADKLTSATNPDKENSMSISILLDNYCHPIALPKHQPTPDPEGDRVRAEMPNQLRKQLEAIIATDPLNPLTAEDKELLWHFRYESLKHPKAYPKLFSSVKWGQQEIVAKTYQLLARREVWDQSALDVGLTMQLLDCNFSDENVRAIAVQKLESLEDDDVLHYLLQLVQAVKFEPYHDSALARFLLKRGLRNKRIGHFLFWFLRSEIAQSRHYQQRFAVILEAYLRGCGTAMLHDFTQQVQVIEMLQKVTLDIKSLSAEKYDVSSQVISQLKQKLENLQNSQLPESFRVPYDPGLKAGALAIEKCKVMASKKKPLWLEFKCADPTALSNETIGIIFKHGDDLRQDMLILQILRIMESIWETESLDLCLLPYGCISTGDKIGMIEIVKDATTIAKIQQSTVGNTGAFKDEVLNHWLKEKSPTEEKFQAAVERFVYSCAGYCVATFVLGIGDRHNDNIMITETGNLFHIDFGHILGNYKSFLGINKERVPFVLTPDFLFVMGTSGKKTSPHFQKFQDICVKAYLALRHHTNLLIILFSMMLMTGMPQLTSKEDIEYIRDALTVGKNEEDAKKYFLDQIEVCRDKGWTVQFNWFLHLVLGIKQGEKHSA

[4] = Brain penetration in male C57BL/6 mice after oral administration; type: in vivo; settings: mouse; for Kp: male, C57BL/6, brain and plasma, PO 10 mg·kg^−1, read-out: BBB (Brain/Plasma Cone. Ratio)
Experimental: IV. Brain Penetration of Compounds in Male C57BL/6 Mice after Oral Administration Dose Formulation Preparation
Approximately 4 mg of a test compound was weighed and dispersed in 0.5% methyl cellulose (MC). After that, the whole mixture were vortexed until a solution or suspension was formed. The final concentration of the test compound was 1 mg·mL^−1. The concentration of test compound in dosing formulations was determined within 85% to 115% of nominal values.
The mice were housed in solid bottom polypropylene cages with sterilized bedding. The room was controlled and monitored for humidity (targeted mean range 40% to 70%) and temperature (targeted mean range 20° to 25° C.) with 10 to 20 air changes/hour. The room was on a 12-hour light/dark cycle except when interruptions were necessitated by study activities. The mice were supplied with sterilized diet and water. All animals were examined upon receipt and were acclimated for at least 3 days. Only animals that appeared to be healthy were selected for the study based on overall health, body weight, or other relevant data as appropriate.
All procedures performed on animals were in accordance with established guidelines and reviewed and approved by an independent institutional review board.
The mice were administrated with test compound at 10 mg·kg^−1 via oral gavage, respectively. The dosing formulations were freshly prepared. The actual body weights and actual volume administered were recorded accordingly.
Three mice were sacrificed under carbon dioxide for sample collection at 1, 2 and 4 hours post dose, respectively. Blood samples (˜0.2 mL) were collected via cardiac puncture into anticoagulant tubes (coated with EDTA-Ka). The tubes were gently inverted several times to ensure mixing. Whole blood was processed for plasma by centrifugation at 5,500 rpm for 10 min. The brain was collected immediately after euthanasia. The sample collection time was recorded accordingly. After the removal of excess water, the brain was weighed and homogenized with 5× water (w/v) in an ice bath. […]

Sequence of recombinant PI3K (p110α/p85α) (P42336 whole entry): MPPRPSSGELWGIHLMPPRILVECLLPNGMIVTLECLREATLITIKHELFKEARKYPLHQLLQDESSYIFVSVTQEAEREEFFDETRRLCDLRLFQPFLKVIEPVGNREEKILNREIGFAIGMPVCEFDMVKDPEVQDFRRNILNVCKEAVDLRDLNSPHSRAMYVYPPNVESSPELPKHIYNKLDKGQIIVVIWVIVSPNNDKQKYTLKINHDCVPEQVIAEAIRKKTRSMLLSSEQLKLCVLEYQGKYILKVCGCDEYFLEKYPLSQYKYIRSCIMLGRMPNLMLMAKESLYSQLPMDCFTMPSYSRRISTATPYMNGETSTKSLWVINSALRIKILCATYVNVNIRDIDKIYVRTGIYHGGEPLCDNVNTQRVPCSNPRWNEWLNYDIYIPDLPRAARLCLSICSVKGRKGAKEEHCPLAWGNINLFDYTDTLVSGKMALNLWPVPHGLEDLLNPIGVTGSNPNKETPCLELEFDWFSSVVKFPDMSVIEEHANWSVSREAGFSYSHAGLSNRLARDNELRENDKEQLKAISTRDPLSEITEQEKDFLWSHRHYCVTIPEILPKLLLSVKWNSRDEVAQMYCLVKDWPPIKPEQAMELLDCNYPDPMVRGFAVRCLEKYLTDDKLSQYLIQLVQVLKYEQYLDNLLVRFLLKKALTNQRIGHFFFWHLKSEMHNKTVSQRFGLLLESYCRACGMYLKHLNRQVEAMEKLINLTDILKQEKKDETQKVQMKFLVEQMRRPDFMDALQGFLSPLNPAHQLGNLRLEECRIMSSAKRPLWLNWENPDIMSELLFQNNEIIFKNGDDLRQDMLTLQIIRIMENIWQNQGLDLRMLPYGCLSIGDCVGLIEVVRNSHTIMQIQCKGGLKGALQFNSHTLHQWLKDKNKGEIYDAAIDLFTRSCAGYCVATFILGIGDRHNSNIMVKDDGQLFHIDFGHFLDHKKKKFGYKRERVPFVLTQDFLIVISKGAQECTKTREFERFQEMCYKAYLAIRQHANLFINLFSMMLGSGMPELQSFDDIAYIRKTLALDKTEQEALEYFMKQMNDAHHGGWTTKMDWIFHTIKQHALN
Sequence of recombinant PI3K (p110α/p85α) (P27986 whole entry partner): as the sequence (P27986 whole entry partner) above

`CC(C)Oc1c(C(C)c2nc(Cl)c3c(N)nccn23)cc(Cl)c(F)c1C1CNC(=O)C1` (single isomer, unassigned) [Compound 48B, 4-(3-(1-(8-amino-1-chloroimidazo[1,5-a]pyrazin-3-yl)ethyl)-5-chloro-6-fluoro-2-isopropoxyphenyl)pyrrolidin-2-one] gave an IC50 [1] of 1300 nM, an AUC(0-inf) ([2]; 1 mg/kg, IV (1 mpk)) of 425 ng·h/mL and a clearance ([2]; 1 mg/kg, IV (1 mpk)) of 39.2 mL/min/kg. For the same molecule, the half-life ([2]; 1 mg/kg, IV (1 mpk)) was 84 min, the Vd ([2]; 1 mg/kg, IV (1 mpk)) was 4.3 L/kg and the AUC(0-inf) ([2]; 5 mg/kg, PO (5 mpk)) was 1000 ng·h/mL. It also gave a Cmax ([2]; 5 mg/kg, PO (5 mpk)) of 254 ng/mL, a Tmax ([2]; 5 mg/kg, PO (5 mpk)) of 0.8 h and a bioavailability ([2]; 5 mg/kg, PO (5 mpk)) of 47%. For the same molecule, the half-life ([2]; 5 mg/kg, PO (5 mpk)) was 126 min, the IC50 [3] was 0.31 nM and the IC50 (PI3K (p110β/p85α)) was 1200 nM. For the same molecule, the IC50 (PI3K (p110γ)) was 630 nM.

Molecule `CC(C)Oc1c([C@H](C)c2nc(Cl)c3c(N)nccn23)cc(Cl)c(F)c1-c1ccc(C(=O)N(C)C)nc1` [Compound 16A] has an IC50 [1] of 790 nM, an AUC(0-inf) ([2]; 1 mg/kg, IV (1 mpk)) of 1060 ng·h/mL and a clearance ([2]; 1 mg/kg, IV (1 mpk)) of 16 mL/min/kg. For the same molecule, the half-life ([2]; 1 mg/kg, IV (1 mpk)) was 78 min, the Vd ([2]; 1 mg/kg, IV (1 mpk)) was 1.8 L/kg and the AUC(0-inf) ([2]; 5 mg/kg, PO (5 mpk)) was 2190 ng·h/mL. For the same molecule, the Cmax ([2]; 5 mg/kg, PO (5 mpk)) was 496 ng/mL, the Tmax ([2]; 5 mg/kg, PO (5 mpk)) was 1 h and the bioavailability ([2]; 5 mg/kg, PO (5 mpk)) was 41.1%. It also gave a half-life ([2]; 5 mg/kg, PO (5 mpk)) of 114 min, an IC50 [3] of 0.71 nM and an IC50 (PI3K (p110β/p85α)) of 870 nM. For the same molecule, the IC50 (PI3K (p110γ)) was 440 nM and the Kp [4] was 0.05.

In the case of `CC(C)Oc1c([C@H](C)c2nc(Cl)c3c(N)nccn23)cc(Cl)c(F)c1-c1ccc(C(F)(F)F)nc1` [Compound 40A], the IC50 [1] is reported as 33000 nM, the AUC(0-inf) ([2]; 1 mg/kg, IV (1 mpk)) is reported as 768 ng·h/mL and the clearance ([2]; 1 mg/kg, IV (1 mpk)) is reported as 22.2 mL/min/kg. It also gave a half-life ([2]; 1 mg/kg, IV (1 mpk)) of 540 min, a Vd ([2]; 1 mg/kg, IV (1 mpk)) of 14.8 L/kg and an AUC(0-inf) ([2]; 5 mg/kg, PO (5 mpk)) of 1720 ng·h/mL. The Cmax ([2]; 5 mg/kg, PO (5 mpk)) was 179 ng/mL, the Tmax ([2]; 5 mg/kg, PO (5 mpk)) was 2.7 h and the bioavailability ([2]; 5 mg/kg, PO (5 mpk)) was 51%. It also gave a half-life ([2]; 5 mg/kg, PO (5 mpk)) of 396 min, an IC50 [3] of 1 nM and an IC50 (PI3K (p110β/p85α)) of 6800 nM. For the same molecule, the IC50 (PI3K (p110γ)) was 3800 nM, the Kp [4] was 0.29 and the “Brain/Plasma Conc. Ratio (in words)” value ([4]; PO) was “much better Brain/Plasma Conc, Ratio”.
